# Values quoted from earlier work as cited in US12648892B2, “Emergency eye wash” (Lebrun Labs LLC, priority 2024, dated 2026).
# How the values were obtained:
# eye = eye damage classification; cited from earlier work; note: key: GHS Category 1 (Chemicals that cause extreme and irreversible damage to the eye)
# [1] = most extreme pH value found for each chemical; includes diluted chemicals; cited from earlier work
SMILES,in vivo GHS (eye),pH [1]
CSCCC(NC(C)=O)C(=O)O (racemic) [compound 88],1,–
O=C1C2CC=CCC2C(=O)N1SC(Cl)(Cl)Cl (stereo not shown) [compound 1],1,–
CC(C)(C)CC(C)(C)c1ccc(O)cc1 [compound 2],1,–
CCN(CC)CCCC(C)Nc1c2ccc(Cl)cc2nc2ccc(OC)cc12 (stereo not shown) [compound 3],1,–
O=C([O-])C(=O)[O-].[Na+].[Na+] [compound 4],1,–
CCCCCCCCCCCCCCCC[N+](C)(C)C.[Cl-] [compound 5],1,–
O=C(O)CO [compound 6],1,–
CCCCCCCCCCCCOS(=O)(=O)[O-].[Na+] [compound 7],1,–
CCCCCCCCCCCC(=O)O [compound 8],1,–
CCC[CH2][Sn]([CH2]CCC)([CH2]CCC)[O][Sn]([CH2]CCC)([CH2]CCC)[CH2]CCC [compound 9],1,–
CC(=O)O [compound 11],1,–
O=C([O-])c1ccccc1O.[Na+] [compound 13],1,–
CCCCO [compound 15],1,–
OCc1ccccc1 [compound 16],1,–
CC(O)C(=O)O (stereo not shown) [compound 17],1,–
Nc1cccc(N)c1 [compound 18],1,–
c1ccncc1 [compound 20],1,–
CC(CN1c2ccccc2Sc2ccccc21)N(C)C.Cl (stereo not shown) [compound 21],1,–
CCCCCCCCCCCC[N+](C)(C)CCOc1ccccc1.[Br-] [compound 26],1,–
CCCCCCCCCCCCCCCC[N+](C)(C)C.[Br-] [compound 28],1,–
O=C(O)c1ccccc1 [compound 32],1,–
O=C([O-])c1c(Cl)c(Cl)c(Cl)c(Cl)c1-c1c2cc(Br)c(=O)c(Br)c-2oc2c(Br)c([O-])c(Br)cc12.[Na+].[Na+] [compound 34],1,–
CCCCCCCCCCCCCCCC[n+]1ccccc1.O.[Cl-] [compound 35],1,–
CC(C=O)Cc1ccc(C(C)(C)C)cc1 (stereo not shown) [compound 38],1,–

SMILES,in vivo GHS (eye),pH [1]
CCCCCCCCCCCCCCCCCC[N+](C)(C)CCCCCCCCCCCCCCCCCC [compound 39],1,5.5
C=CC(=O)OCCOCCOCCOCCOC(=O)C=C [compound 42],1,5.2
O=C(O)Cc1cccc2ccccc12 [compound 43],1,5.0
CCCCOCCO [compound 46],1,7.0
OC1CCCCC1 [compound 47],1,6.5
C1CCOC1 [compound 48],1,8.0
O=C(O)CCC(=O)C(=O)O [compound 49],1,1.5
Nc1ccc(F)cc1 [compound 50],1,7.4
CC(C)(O)C(=O)O [compound 51],1,1.0
CCO[Si](CCCN)(OCC)OCC [compound 52],1,11.0
CCN(CC)CCO [compound 53],1,11.5
c1c[nH]cn1 [compound 54],1,10.5
CCCCCCCCN [compound 55],1,11.8
[Na+].[OH-] [compound 56],1,14.0
O=C(O)C(Cl)(Cl)Cl [compound 57],1,<1.0
CCCCC(CC)COC(=O)CC(C(=O)OCC(CC)CCCC)S(=O)(=O)[O-].[Na+] (stereo not shown) [compound 58],1,6.5
CCCCCCCCCCCC(=O)[O-].[K+] [compound 59],1,10.5
CCCCCCCCCCCCCCCCCC[N+](C)(C)C [compound 60],1,4.2
CCCCCCCCCCCC[N+](C)(C)[O-] [compound 62],1,9.0
O=C(O)c1ccc(O)cc1O [compound 64],1,3.0
O=S(=O)([O-])O.[Na+] [compound 65],1,<1.0
CCCCCCCC[N+](CCCCCCCC)(CCCCCCCC)CCCCCCCC.[Br-] [compound 66],1,3.9
CC(C)(O)CCC(C)(C)O [compound 68],1,–
OCCCCCCCCCl [compound 69],1,–

SMILES,in vivo GHS (eye),pH [1]
CCCCCCCCCCCC[N+](C)(C)CC(O)CS(=O)(=O)[O-] (stereo not shown) [compound 71],1,–
C#CC(C)(O)CC (stereo not shown) [compound 76],1,–
C=CC(=O)OCCOC [compound 79],1,–
O=S(=O)(Cl)c1ccccc1 [compound 80],1,–
C=CC(=O)OCCO [compound 81],1,–
Oc1ccc(Cl)cc1Cc1ccccc1 [compound 82],1,–
CCOC(=O)C(C)(C)O [compound 83],1,–
CCCCCCCCCCCCCCCC[n+]1ccccc1.[Br-] [compound 84],1,–
O=C(OC(C(=O)O)C(OC(=O)c1ccccc1)C(=O)O)c1ccccc1 (stereo not shown) [compound 87],1,–
O=c1[nH]sc2ccccc12 [compound 89],1,–
O=S1(=O)OC(c2cc(Br)c(O)c(Br)c2)(c2cc(Br)c(O)c(Br)c2)c2c(Br)c(Br)c(Br)c(Br)c21 [compound 90],1,–
C[Si](C)(CCCN)O[Si](C)(C)CCCN [compound 91],1,–
Cc1ccccc1NC(=N)NC(=N)N [compound 92],1,–
COC(=O)CS [compound 93],1,–
CCC(C)(C)C(=O)O [compound 94],1,–
CO[Si](CCCNCCN)(OC)OC [compound 95],1,–
CC(C)(C)c1ccc(O)c(O)c1 [compound 96],1,–
Oc1ccc2ccc(O)cc2c1 [compound 99],1,–
Cc1c(O)cccc1O [compound 100],1,–
CCCOC(=O)C(C)O (stereo not shown) [compound 101],1,–
[Na+].c1nc[n-]n1 [compound 105],1,–
N#CSc1ccc(N)c([N+](=O)[O-])c1 [compound 106],1,–
O=C=Nc1ccc(Cl)c(Cl)c1 [compound 107],1,–
CCN(CC)CCC#N [compound 108],1,–
